This assay concerns the target T1, human mAChR M4 (Homo sapiens, UniProt P08173).
T1 construct: expressed in transfected cells; host or cells: CHO-K1 (American Type Culture Collection), stably expressing hM4 and Gqi5
T1 sequence (P08173 1-479): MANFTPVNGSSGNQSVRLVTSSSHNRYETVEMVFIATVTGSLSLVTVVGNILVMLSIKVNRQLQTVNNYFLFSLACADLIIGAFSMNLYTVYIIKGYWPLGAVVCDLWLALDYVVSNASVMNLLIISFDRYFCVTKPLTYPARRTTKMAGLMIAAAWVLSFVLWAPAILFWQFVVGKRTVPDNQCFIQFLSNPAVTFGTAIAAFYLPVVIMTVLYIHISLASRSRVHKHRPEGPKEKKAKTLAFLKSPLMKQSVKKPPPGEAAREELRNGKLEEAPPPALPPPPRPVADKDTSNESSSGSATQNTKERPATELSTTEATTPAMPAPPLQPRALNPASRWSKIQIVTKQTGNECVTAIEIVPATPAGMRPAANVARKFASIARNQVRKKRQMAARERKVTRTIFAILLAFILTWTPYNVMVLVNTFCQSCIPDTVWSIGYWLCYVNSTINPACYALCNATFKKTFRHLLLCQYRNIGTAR
In words: mAChR M4 cell-based functional assay: calcium mobilization (Fluo-4, FDSS), potentiation of EC20 acetylcholine response in hM4-Gqi5 CHO-K1 cells. Particulars: human M4; for Emax at 30 µM: CHO-K1, % ACh maximum at 30 μM; for EC50: potentiation of EC20 acetylcholine response, calcium mobilization. The essentials: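 CHO-K1 cells stably co-expressing human M4 and chimeric Gqi5, loaded with Fluo-4 AM (50 min, 37 °C). Compounds in 11-point 1:3 series added first; EC20 acetylcholine added at 144 s and again at 230 s. Calcium read on FDSS at 1 Hz; EC50 and Emax from four-parameter logistic fit of potentiated EC20 response.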
(In general: A change in cytosolic calcium serves as a functional read-out for many receptors and channels.)

Experimental findings from patent US20250101041A1, “POSITIVE ALLOSTERIC MODULATORS OF THE MUSCARINIC ACETYLCHOLINE RECEPTOR M4” (Vanderbilt University, priority 2022, published 2025) are described below.

A word on the Emax: it is the size of the effect at its maximum, as opposed to the concentration needed. Broadly, the EC50 is the concentration that produces a half-maximal response.

Take `Cc1cc(=O)n2nc(N3CCc4ncc(-c5ccc(C6CC6)nc5)cc4C3)c(C)c(C)c2n1` [Compound 1-128, 7-(3-(6-cyclopropylpyridin-3-yl)-7,8-dihydro-1,6-naphthyridin-6(5H)-yl)-2,8,9-trimethyl-4H-pyrimido[1,2-b]pyridazin-4-one]: the Emax at 30 µM stood at 80% and the EC50 came to 768 nM.
Take `Cc1cc2nc(C(F)(F)F)cc(=O)n2nc1N1CCc2ncc(N3CCCn4nccc43)cc2C1` [Compound 2-11, 7-(3-(6,7-dihydropyrazolo[1,5-a]pyrimidin-4(5H)-yl)-7,8-dihydro-1,6-naphthyridin-6(5H)-yl)-8-methyl-2-(trifluoromethyl)-4H-pyrimido[1,2-b]pyridazin-4-one]: the Emax at 30 µM was found to be 115% and the EC50 was 19 nM.
In the case of `Cc1ccc(-c2cnc3c(c2)CN(c2nn4c(=O)cc(C(=O)NCc5cncs5)nc4cc2C)CC3)cn1` [Compound 1-77, 8-Methyl-7-(3-(6-methylpyridin-3-yl)-7,8-dihydro-1,6-naphthyridin-6(5H)-yl)-4-oxo-N-(thiazol-5-ylmethyl)-4H-pyrimido[1,2-b]pyridazine-2-carboxamide], the Emax at 30 µM is 74% and the EC50 was determined as 285 nM.
For the compound `Cc1ccc(F)cc1-c1cnc2c(c1)CN(c1nn3c(=O)ccnc3cc1C)CC2` [Compound 1-432, 7-(3-(5-fluoro-2-methylphenyl)-7,8-dihydro-1,6-naphthyridin-6(5H)-yl)-8-methyl-4H-pyrimido [1,2-b]pyridazin-4-one], the maximal response (Emax) at 30 µM worked out at 80% and the EC50 was 63 nM.
For `Cc1cc2nccc(=O)n2nc1N1CCc2ncc(N3CCOC(c4cccc(F)c4)C3)cc2C1` (stereo not drawn) [Compound 2-61, 7-(3-(2-(3-fluorophenyl)morpholino)-7,8-dihydro-1,6-naphthyridin-6(5H)-yl)-8-methyl-4H-pyrimido[1,2-b]pyridazin-4-one], in that order: 84% and 518 nM.
The like results for `COCc1cc(=O)n2nc(N3CCc4ncc(-c5ccccc5C)cc4C3)c(C)cc2n1` [Compound 1-337, 2-(methoxymethyl)-8-methyl-7-(3-(o-tolyl)-7,8-dihydro-1,6-naphthyridin-6(5H)-yl)-4H-pyrimido[1,2-b]pyridazin-4-one] were, in that order, 76% and 331 nM.
For `Cc1cc2nccc(=O)n2nc1N1CCc2ncc(Nc3cccc(F)c3F)cc2C1` [Compound 2-106, 7-(3-((2,3-difluorophenyl)amino)-7,8-dihydro-1,6-naphthyridin-6(5H)-yl)-8-methyl-4H-pyrimido[1,2-b]pyridazin-4-one], in that order: 84% and 32 nM.
Turning to `Cc1cc2nccc(=O)n2nc1N1CCc2ncc(N3CCOC(c4ccc(F)cc4)C3)cc2C1` (stereo not drawn) [Compound 2-64, 7-(3-(2-(4-fluorophenyl)morpholino)-7,8-dihydro-1,6-naphthyridin-6(5H)-yl)-8-methyl-4H-pyrimido[1,2-b]pyridazin-4-one], the maximum response (Emax) at 30 µM stood at 84% and the concentration giving a half-maximal response (EC50) amounted to 398 nM.
The like results for `Cc1cc2nccc(=O)n2nc1N1CCc2ncc(-c3cccnc3)cc2C1` [Compound 1-68, 8-methyl-7-(3-(pyridin-3-yl)-7,8-dihydro-1,6-naphthyridin-6(5H)-yl)-4H-pyrimido[1,2-b]pyridazin-4-one] were, in that order, 84% and 358 nM.
In the case of `Cc1cc(=O)n2nc(N3CCc4ncc(-c5cc(F)ncc5F)cc4C3)c(C)cc2n1` [Compound 1-258, 7-(3-(2,5-difluoropyridin-4-yl)-7,8-dihydro-1,6-naphthyridin-6(5H)-yl)-2,8-dimethyl-4H-pyrimido[1,2-b]pyridazin-4-one], the maximal response (Emax) at 30 µM worked out at 67% and the EC50 amounted to 363 nM.
Consider `Cc1cc2nccc(=O)n2nc1N1CCc2ncc(Nc3cnccn3)cc2C1` [Compound 2-127, 8-methyl-7-(3-(pyrazin-2-ylamino)-7,8-dihydro-1,6-naphthyridin-6(5H)-yl)-4H-pyrimido[1,2-b]pyridazin-4-one], for which the Emax at 30 µM was 64% and the EC50 amounted to 2540 nM.
In the case of `COc1cncc(-c2cnc3c(c2)CN(c2nn4c(=O)cc(C(F)F)nc4c(C)c2C)CC3)c1` [Compound 1-167, 2-(difluoromethyl)-7-(3-(5-methoxypyridin-3-yl)-7,8-dihydro-1,6-naphthyridin-6(5H)-yl)-8,9-dimethyl-4H-pyrimido[1,2-b]pyridazin-4-one], the Emax at 30 µM stood at 80% and the EC50 was determined as 353 nM.
`Cc1c(N2CCc3ncc(-c4ccnnc4)cc3C2)nn2c(=O)cc(C(F)F)nc2c1C` [Compound 1-158, 2-(difluoromethyl)-8,9-dimethyl-7-(3-(pyridazin-4-yl)-7,8-dihydro-1,6-naphthyridin-6(5H)-yl)-4H-pyrimido[1,2-b]pyridazin-4-one]: the Emax at 30 µM is 94% and the EC50 was found to be 251 nM.
In the case of `Cc1cc2nc(C(F)F)cc(=O)n2nc1N1CCc2ncc(-c3cnn(C)c3)cc2C1` [Compound 1-35, 2-(Difluoromethyl)-8-methyl-7-(3-(1-methyl-1H-pyrazol-4-yl)-7,8-dihydro-1,6-naphthyridin-6(5H)-yl)-4H-pyrimido[1,2-b]pyridazin-4-one], the Emax at 30 µM stood at 92% and the EC50 worked out at 80 nM.
Turning to `Cc1cc2nc(C(=O)N3CC(C)C3)cc(=O)n2nc1N1CCc2ncc(C(F)(F)F)cc2C1` [Compound 1-56, 8-methyl-2-(3-methylazetidine-1-carbonyl)-7-(3-(trifluoromethyl)-7,8-dihydro-1,6-naphthyridin-6(5H)-yl)-4H-pyrimido[1,2-b]pyridazin-4-one], the Emax at 30 µM was determined as 102% and the EC50 came out at 281 nM.
Take `Cc1cc2nccc(=O)n2nc1N1CCc2ncc(Nc3ccccc3Cl)cc2C1` [Compound 2-67, 7-(3-((2-chlorophenyl)amino)-7,8-dihydro-1,6-naphthyridin-6(5H)-yl)-8-methyl-4H-pyrimido[1,2-b]pyridazin-4-one]: the Emax at 30 µM is 95% and the EC50 turned out to be 25 nM.
For `Cc1cc2nccc(=O)n2nc1N1CCc2ncc(-c3ccn(C)c(=O)c3)cc2C1` [Compound 1-37, 8-methyl-7-(3-(1-methyl-2-oxo-1,2-dihydropyridin-4-yl)-7,8-dihydro-1,6-naphthyridin-6(5H)-yl)-4H-pyrimido[1,2-b]pyridazin-4-one], the Emax at 30 µM was found to be 83% and the EC50 is 2530 nM.
For `COc1ncc(-c2cnc3c(c2)CN(c2nn4c(=O)cc(C(F)F)nc4c(C)c2C)CC3)cc1Cl` [Compound 1-168, 7-(3-(5-chloro-6-methoxypyridin-3-yl)-7,8-dihydro-1,6-naphthyridin-6(5H)-yl)-2-(difluoromethyl)-8,9-dimethyl-4H-pyrimido[1,2-b]pyridazin-4-one], in that order: 72% and 2310 nM.
With `COc1ccc(Nc2cnc3c(c2)CN(c2nn4c(=O)ccnc4cc2C)CC3)cn1` [Compound 2-134, 7-(3-((6-methoxypyridin-3-yl)amino)-7,8-dihydro-1,6-naphthyridin-6(5H)-yl)-8-methyl-4H-pyrimido[1,2-b]pyridazin-4-one], the Emax at 30 µM came to 90% and the EC50 stood at 290 nM.
With `Cc1cc(=O)n2nc(N3CCc4ncc(-c5ccc(C)o5)cc4C3)c(C)c(C)c2n1` [Compound 1-305, 2,8,9-trimethyl-7-(3-(5-methylfuran-2-yl)-7,8-dihydro-1,6-naphthyridin-6(5H)-yl)-4H-pyrimido[1,2-b] pyridazin-4-one], the maximum response (Emax) at 30 µM worked out at 88% and the EC50 turned out to be 315 nM.
On to `Cc1cc(=O)n2nc(N3CCc4ncc(C(F)(F)F)cc4C3)c(C)c(C)c2n1` [Compound 1-33, 2,8,9-trimethyl-7-(3-(trifluoromethyl)-7,8-dihydro-1,6-naphthyridin-6(5H)-yl)-4H-pyrimido[1,2-b]pyridazin-4-one], for which the maximal effect (Emax) at 30 µM is 77% and the EC50 was determined as 64 nM.
Consider `Cc1cc2nccc(=O)n2nc1N1CCc2ncc(-c3cc(C#N)n(C)c3C)cc2C1` [Compound 1-423, 1,5-dimethyl-4-(6-(8-methyl-4-oxo-4H-pyrimido[1,2-b]pyridazin-7-yl)-5,6,7,8-tetrahydro-1,6-naphthyridin-3-yl)-1H-pyrrole-2-carbonitrile], for which the Emax at 30 µM worked out at 79% and the concentration giving a half-maximal response (EC50) was determined as 1190 nM.
For the compound `Cc1cc2nccc(=O)n2nc1N1CCc2ncc(NC(=O)C3CCOCC3)cc2C1` [Compound 2-110, N-(6-(8-methyl-4-oxo-4H-pyrimido[1,2-b]pyridazin-7-yl)-5,6,7,8-tetrahydro-1,6-naphthyridin-3-yl)tetrahydro-2H-pyran-4-carboxamide], the Emax at 30 µM is 47% and the concentration giving a half-maximal response (EC50) was determined as 2200 nM.
Turning to `Cc1cc(=O)n2nc(N3CCc4ncc(-c5ccc6nccn6c5)cc4C3)c(C)c(C)c2n1` [Compound 1-133, 7-(3-(imidazo[1,2-a]pyridin-6-yl)-7,8-dihydro-1,6-naphthyridin-6(5H)-yl)-2,8,9-trimethyl-4H-pyrimido[1,2-b]pyridazin-4-one], the Emax at 30 µM stood at 79% and the EC50 stood at 556 nM.
